Results on eight compounds are retold here after ChEMBL document CHEMBL1201862, “PubChem BioAssay data set” (2004).

Structures can show the parent of a compound that is named as a salt.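 Following 48 hours of exposure in 96-well plates, responses at five concentrations were used to interpolate endpoints linearly. GI50 = concentration required for 50% inhibition of growth.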 Calls of active or inactive are those of the source. Rule as the data show it: active = GI50 up to about 1.1 µM and inactive = higher.

Test systems include HCT-116; Malme-3M; SF-539; OVCAR-4; EKVX; M14; T47D; UACC-257; A498; MCF7; HCC 2998; NCI-H23; KM12; BT-549; SNB-19; RXF 393; SR; LOX IMVI; HOP-62; M19-MEL.
Common to all, as to experiment: growth of human tumour cells (NCI), 48 h

Take `Cc1ccc2nc(/C=N/c3ccccc3Cl)cc(C)c2c1`: the GI50 is 4.21 µM (inactive) in the experiment on HCT-116; 20.8 µM (inactive) in the experiment on Malme-3M; 16.5 µM (inactive) in the experiment on SF-539; 34 µM (inactive) in the experiment with OVCAR-4; 20.4 µM (inactive) in the experiment with EKVX; 13.2 µM (inactive) in the experiment on M14. Further, the GI50 in the experiment with T47D was 22.4 µM (inactive); in the experiment on UACC-257, 15.8 µM (inactive); with A498, > 100 µM (inactive); in the experiment with MCF7, 17.5 µM (inactive); with HCC 2998 it was 47.3 µM (inactive); in the experiment on NCI-H23, 22.2 µM (inactive). Besides, the GI50 in the experiment on KM12 was 17.4 µM (inactive); in the experiment with BT-549, 16.1 µM (inactive); in the experiment with SNB-19, 30.2 µM (inactive); in the experiment with RXF 393, 14.5 µM (inactive); in the experiment on SR, 2.81 µM (inactive); in the experiment with LOX IMVI, 8.61 µM (inactive). Besides, the GI50 in the experiment on HOP-62 was 38.8 µM (inactive).

Consider `CC(=O)SC(C[N+](=O)[O-])c1ccccc1` (configuration not stated), for which the GI50 in the experiment with HCT-116 is 1.6 µM (inactive); in the experiment with Malme-3M, 16.6 µM (inactive); in the experiment on SF-539, 2.27 µM (inactive); in the experiment on OVCAR-4, 1.76 µM (inactive); in the experiment on EKVX, 6.31 µM (inactive); with M14, 3.84 µM (inactive). Also, the GI50 in the experiment on T47D was 10.4 µM (inactive); in the experiment on UACC-257 it was 11.3 µM (inactive); in the experiment on A498, 5.43 µM (inactive); in the experiment on MCF7 it was 1.74 µM (inactive); in the experiment on HCC 2998, 4.75 µM (inactive); with NCI-H23, 12 µM (inactive). In addition, the GI50 with KM12 was 4.99 µM (inactive); in the experiment with BT-549 it was 2.22 µM (inactive); in the experiment with SNB-19 it was 11.9 µM (inactive); in the experiment with RXF 393, 2.1 µM (inactive); in the experiment on SR, 2.22 µM (inactive); with LOX IMVI it was 1.65 µM (inactive). For the same compound, in the experiment on HOP-62, the GI50 was 15.3 µM (inactive).

With `CCOP(=O)(OCC)OC1c2[nH]cc(C(=O)OCc3ccccc3)c2-c2cc(C(=O)OC)[nH]c2C1OC` (configuration not stated), the GI50 in the experiment with HCT-116 is 6.4 µM (inactive); in the experiment with Malme-3M, 9.06 µM (inactive); in the experiment on SF-539 it was 8.45 µM (inactive); in the experiment on OVCAR-4 it was 6.15 µM (inactive); in the experiment with EKVX, 5.94 µM (inactive); with M14, 9.08 µM (inactive). Further, the GI50 was 7.91 µM (inactive) in the experiment on T47D; 6.79 µM (inactive) with UACC-257; 10.6 µM (inactive) in the experiment on A498; 8.67 µM (inactive) with MCF7; 6.85 µM (inactive) in the experiment on HCC 2998; 13.4 µM (inactive) with NCI-H23. Moreover, the GI50 is 7.96 µM (inactive) in the experiment with KM12; 12.1 µM (inactive) in the experiment on BT-549; 14.7 µM (inactive) in the experiment on SNB-19; 8.18 µM (inactive) in the experiment with RXF 393; 7.6 µM (inactive) in the experiment on SR; 4.56 µM (inactive) with LOX IMVI. Also, the GI50 with HOP-62 is 7.76 µM (inactive).

As for `O=C1C=C(c2ccccc2)O/C1=C\C(=O)c1ccc(Cl)cc1`, the GI50 is 16.4 µM (inactive) with HCT-116; 13.6 µM (inactive) in the experiment on Malme-3M; 57.7 µM (inactive) with SF-539; 21.9 µM (inactive) in the experiment on OVCAR-4; > 100 µM (inactive) in the experiment on EKVX; 19.6 µM (inactive) in the experiment with M14. Further, the GI50 is 23.3 µM (inactive) in the experiment with T47D; 18.2 µM (inactive) in the experiment with UACC-257; 80.2 µM (inactive) in the experiment on A498; 17.3 µM (inactive) in the experiment with MCF7; 28.3 µM (inactive) in the experiment on HCC 2998; 25.5 µM (inactive) with NCI-H23. Also, the GI50 is 34.4 µM (inactive) in the experiment with KM12; 12.5 µM (inactive) with BT-549; > 100 µM (inactive) in the experiment with SNB-19; 17.7 µM (inactive) in the experiment with RXF 393; 11.3 µM (inactive) with SR; 16.3 µM (inactive) in the experiment with LOX IMVI. Moreover, the GI50 in the experiment on HOP-62 is > 100 µM (inactive).

On to `O=C1CC2Sc3ccccc3N=C2N1c1ccc(Cl)cc1Cl` (configuration not stated), for which the GI50 in the experiment on HCT-116 is 38.2 µM (inactive); in the experiment on Malme-3M, 64.7 µM (inactive); in the experiment with OVCAR-4, > 100 µM (inactive); in the experiment on EKVX, > 100 µM (inactive); with M14, 71 µM (inactive); in the experiment on UACC-257, > 100 µM (inactive). The GI50 is 50 µM (inactive) in the experiment with M19-MEL; > 100 µM (inactive) in the experiment on HCC 2998; 87.7 µM (inactive) in the experiment with NCI-H23; 49.8 µM (inactive) in the experiment with KM12; 77.8 µM (inactive) in the experiment with SNB-19; 93.5 µM (inactive) with RXF 393. The values for the GI50 with LOX IMVI and in the experiment on HOP-62 were 40.7 µM (inactive) and > 100 µM (inactive), respectively.

As to `CCc1nc(N)nc(N)c1-c1ccc(NC)c([N+](=O)[O-])c1`, the GI50 in the experiment on HCT-116 was 0.219 µM (active); in the experiment on Malme-3M it was 24.8 µM (inactive); in the experiment on SF-539, 1.47 µM (inactive); with OVCAR-4 it was 15.5 µM (inactive); in the experiment with EKVX, 8.41 µM (inactive); in the experiment with M14, 0.959 µM (active). Also, the GI50 in the experiment with T47D is 21.4 µM (inactive); with UACC-257, 18 µM (inactive); in the experiment on A498 it was 2.43 µM (inactive); in the experiment on MCF7, 2.48 µM (inactive); in the experiment with HCC 2998, 3.56 µM (inactive); with NCI-H23, 0.944 µM (active). Besides, the GI50 in the experiment on KM12 is 2.76 µM (inactive); in the experiment with BT-549 it was 26.1 µM (inactive); in the experiment on SNB-19, 9.08 µM (inactive); in the experiment on RXF 393, 16 µM (inactive); in the experiment with SR, 0.327 µM (active); with LOX IMVI, 0.449 µM (active). The GI50 in the experiment on HOP-62 was 1.79 µM (inactive).

Turning to `NC(=O)NC1NC(=O)NC1=O` (configuration not stated) [ALLANTOIN], the GI50 with HCT-116, in the experiment with Malme-3M, in the experiment with SF-539, with OVCAR-4, in the experiment on EKVX and in the experiment with M14 was > 100 µM (inactive) throughout. Besides, the GI50 in the experiment on T47D, with UACC-257, with A498, with MCF7, in the experiment with HCC 2998 and in the experiment on NCI-H23 was > 100 µM (inactive) throughout. The GI50 in the experiment with KM12, in the experiment on BT-549, with SNB-19, in the experiment on RXF 393, with SR and with LOX IMVI was > 100 µM (inactive) throughout. For the same compound, the GI50 with HOP-62 is > 100 µM (inactive).

Turning to `CN1CCC(CN2c3ccccc3Sc3ccccc32)C1` (configuration not stated) [METHDILAZINE HYDROCHLORIDE], the GI50 with HCT-116 was 13.9 µM (inactive); in the experiment on Malme-3M, 16.5 µM (inactive); in the experiment with SF-539 it was 16.8 µM (inactive); with OVCAR-4, 13.9 µM (inactive); with EKVX, 16.8 µM (inactive); in the experiment on M14, 10.5 µM (inactive). In addition, the GI50 in the experiment with T47D was 15.8 µM (inactive); with UACC-257 it was 11.8 µM (inactive); with A498 it was 13.1 µM (inactive); with MCF7 it was 17.2 µM (inactive); in the experiment on HCC 2998 it was 10.1 µM (inactive); with NCI-H23, 20.3 µM (inactive). For the same compound, the GI50 with KM12 was 17.9 µM (inactive); with BT-549, 16.8 µM (inactive); with SNB-19, 17.9 µM (inactive); in the experiment on RXF 393 it was 3.5 µM (inactive); in the experiment on SR it was 2.7 µM (inactive); with LOX IMVI, 15 µM (inactive). The GI50 with HOP-62 was 15 µM (inactive).
